Experiment [1] deals with glioblastoma U-87 cells. The experiment in a line: ATP quantification (CellTiter-Glo). The note with it: 3 h incubation. Type of experiment: cell-based, human. Here is the method:
U-87 cells were seeded in 96-well plates (2×10^6/ml), incubated for 3 h with the indicated concentrations of D-Δ1-14N-Ter-Antp (SEQ ID NO:9), washed twice with PBS and incubated with the CellTiter-Glo reagent (Promega). Luminescence was recorded using an Infinite M1000 microplate reader (Tecan Trading, Mannedorf, Switzerland).
(§1) VDAC1 is a key component in regulating the energy production of the cell. It is known that cancer cells are characterized by elevated energy demand. The effects of D-Δ(1-14) N-Ter-Antp on the mitochondrial inner membrane polarization and cellular ATP level were examined using glioblastoma U-87 cells. U-87 cells were incubated for 3 h with the various concentrations of D-Δ1-14N-Ter-Antp or with FCCP (10 μM, control for depolarization) for 1 h.
In general terms: ATP-based viability assays read luminescence as a measure of living cells.

Experiment [2] has as its system glioblastoma xenografts (U87 cells). The experiment in a line: Tumor growth of U87 glioblastoma xenografts in nude mice. Type of experiment: in vivo. Conditions: xenografts injected with 10 μl of 20 or 40 μM solutions. Here is the method: U87 cells were inoculated into male nude mice (7×10^6 cells/mouse). Tumor volumes were monitored (using a digital caliper) and on day 11, the mice were divided into […] (5 mice per group), with each mouse containing a tumor with a volume between 100-200 mm^3 and similar average volumes measured per group. The four mice groups were subjected to the following treatments: Xenografts were injected with 0.26% DMSO (control), with D-Δ1-14N-Ter-Antp (10 μl of 20 or 40 μM solutions) or with the previously disclosed Tf-LP4 peptide (10 μl of a 20 μM solution).

In experiment [3] the test system is Human primary glioblastoma cells (U-87). Description: Cell death of U-87 cells, PI staining and flow cytometry. Type of experiment: cell-based. Conditions: 6 h, serum-free medium, PI-positive cells; read-out: IC50, cell death, U87. Here is the method: (§2) The efficacy of the peptide comprising amino acids […] of the N-terminal domain of VDAC1, synthesized with D-amino acids (all D-stereomeric peptide) conjugated to the Antp sequence also synthesized from D-amino acids as a CPP (D-Δ(1-14) N-Ter-Antp, SEQ ID NO:9) was further examined for its activity of inducing cell death with brain tumor derived cell lines. Human primary glioblastoma cells (U-87), human neuroblastoma cells (SH-SY5Y) and rat glioblastoma cells (C6) were incubated (4×10^5 cells) for 6 h in a serum-free-medium containing different concentrations of D-Δ1-14N-Ter-Antp (SEQ ID NO:9). The previously disclosed LP4 peptide conjugated to Tf (Tf-D-LP4 peptide, SEQ ID NO:20) was used as a reference of activity. At the end of the incubation time the cells were stained with PI and the level of cell death, reflected by the percentage of PI-positive cells, was determined by flow cytometry.

For experiment [4], the system named is glioblastoma cell line U-87. The experiment in a line: Cytochrome c release from mitochondria to cytosol (immunoblot). Type of experiment: cell-based, human. Conditions: U-87 cells, concentration-dependent. Here is the method:
Release of cytochrome c (Cyt c) from mitochondria to the cytosol was measured by immunoblots. Cells were incubated for 5 h with the indicated concentration of the peptide, harvested, washed twice with PBS and gently resuspended in ice-cold buffer (100 mM KCl, 2.5 mM MgCl2, 250 mM sucrose, 20 mM HEPES/KOH pH 7.5, 0.2 mMEDTA, 1 mM dithiothreitol, 1 μg/ml leupeptin, 5 μg/ml cytochalasin B and 0.1 mM phenylmethylsulfonyl fluoride) containing 0.025% digitonin and incubated for 10 min on ice. Samples were centrifuged at 10,000 g at 4° C. for 5 min to obtain the supernatants (cytosolic extracts free of mitochondria) and the pellets (fraction that contains mitochondria). The supernatants were analyzed by SDS-PAGE and immunoprobed using anti-Cyto c antibodies (1:2000, BD Pharmingen™ Cat #556433), and then with secondary horseradish peroxidase (HRP)-conjugated anti-mouse antibodies.
The effect of D-Δ(1-14) N-Ter-Antp on apoptosis was examined in the glioblastoma cell line U-87. U-87 cells were incubated with and without the peptide, treated with digitonin (0.02%) and the release of cytochrome c from mitochondria to the cytosolic fraction was analyzed by immunoblotting.

The test system of experiment [5] is CLL-derived lymphocytes. The experiment in a line: Cell death of CLL-derived lymphocytes (PBMCs of CLL patients), PI staining and FACS. Type of experiment: cell-based, human. The note with it: 90 min incubation, PI staining, FACS, read-out: IC50, induction of cell death, CLL. Here is the method: PBMCs were isolated from venous blood of the CLL patients by Ficoll-Paque PLUS (GE Healthcare, Israel) density gradient centrifugation, as follows. Venous blood (10-20 ml) was drawn from CLL patients with satisfying diagnostic criteria for CLL or from normal adult donors. Blood was collected into heparin tubes and was diluted 1:1 with balance solution composed of two stock solutions, A (1% D-glucose, 50 mM CaCl2, 0.98 mM MgCl2, 5.4 mM KCl and 0.145 M Tris-HCl, pH 7.6) and B (0.14 M NaCl) in a 1:9 ratio. The resulting mix was carefully layered on Ficoll-Paque Plus (10 ml of diluted blood:15 ml Ficoll) in 50 ml conical tubes. The tubes were centrifuged at 400×g (with minimal acceleration and deceleration) and 18-20° C. for 40 min. […] Cells were counted by a Countess Automated Cell Counter (Invitrogen).
PBMCs (4×10^5 or 8×10^5 cells/sample) were incubated in 200 μl serum-free medium with the examined peptide for 90 min at room temperature and centrifuged (500×g, 5 min) Cell death was analyzed by PI staining and flow cytometer (Beckton-Dickinson) and BD Cell Quest Pro software. Apoptotic cell death was also analyzed by PI and annexin V-FITC staining (Zaid H et al. 2005. 12:751-760), and by acridine orange and ethidium bromide staining and confocal microscopy (Olympus 1×81). […]

Experiment [6] concerns U-87 cells. The experiment in a line: TEM visualization of apoptotic cell death. Type of experiment: cell-based, human. Conditions: 2.8 μM peptide. Here is the method: Representative images of transmission electron microscopy (TEM) of untreated cells (FIG. 8A) or cells treated with 2.8 μM of D-Δ1-14N-Ter-Antp (FIG. 8B) are shown.
The test system of experiment [7] is glioblastoma U-87 cells. Description: Mitochondrial membrane potential analysis (TMRM, FACS). Type of experiment: cell-based, human. Conditions: 3 h incubation. Here is the method:
U-87 cells were incubated with the indicated concentrations of D-Δ1-14N-Ter-Antp (SEQ ID NO:9), washed with PBS, incubated with or without the potentiometric fluorescent dye TMRM (200 nM, 20 min), washed with PBS and subjected to FACS analysis. FCCP, allowing for Δψ dissipation, served as a control.
as §1

Experiment [8] deals with rat glioblastoma cells (C6). Description: Cell death of C6 cells, PI staining and flow cytometry. Type of experiment: cell-based. The note with it: 6 h, serum-free medium, PI-positive cells. The procedure:
as §2
For orientation: In flow cytometry, cells or beads pass a laser one at a time.

Experimental findings from patent US9758559B2, “Short peptides derived from VDAC1, compositions and methods of use thereof” (B.G. NEGEV TECHNOLOGIES AND APPLICATIONS LTD., AT …, priority 2013, dated 2017) are described below.

Where a SMILES comes first, the peptide text is derived from it. [ ]: non-standard residue; d: D form.

`CC[C@@H](C)[C@@H](NC(=O)[C@@H](CCCCN)NC(=O)[C@H](NC(=O)[C@@H](CCC(N)=O)NC(=O)[C@@H](CCCNC(=N)N)NC(=O)[C@@H](CC(C)C)NC(=O)CNC(=O)[C@@H](Cc1ccccc1)NC(=O)CNC(=O)[C@@H](Cc1ccc(O)cc1)NC(=O)CNC(=O)[C@@H](CCCCN)NC(=O)[C@H](NC(=O)[C@@H](Cc1ccccc1)NC(=O)[C@H](NC(=O)[C@@H](CC(=O)O)NC(=O)[C@H](N)CCCNC(=N)N)C(C)C)[C@H](C)O)[C@H](C)CC)C(=O)N[C@H](Cc1c[nH]c2ccccc12)C(=O)N[C@H](Cc1ccccc1)C(=O)N[C@H](CCC(N)=O)C(=O)N[C@H](CC(N)=O)C(=O)N[C@H](CCCNC(=N)N)C(=O)N[C@H](CCCNC(=N)N)C(=O)N[C@H](CCSC)C(=O)N[C@H](CCCCN)C(=O)N[C@H](Cc1c[nH]c2ccccc12)C(=O)N[C@H](CCCCN)C(=O)N[C@H](CCCCN)C(=O)O` [D-Δ(1-14) N-Ter-Antp, ALL D-RDVFTKGYGFGL RQIKIWFQNRRMKWKK] (H-[dR][dD][dV][dF][dT][dK]G[dY]G[dF]G[dL][dR][dQ][dI][dK][dI][dW][dF][dQ][dN][dR][dR][dM][dK][dW][dK][dK]-OH): the “cellular ATP level” value in experiment [1] is recorded as “almost complete reduction of cellular ATP level”. The tumor size result in experiment [2] was “significantly reduced the tumor size”. The IC50 (as a rule, the concentration at which inhibition is half-maximal) in experiment [3] was 3.75 µM; in experiment [5], 1.3 ± 0.1 µM; in experiment [8] it was 5.3 µM. Also, the “release of cytochrome c from the mitochondria” value in experiment [4] is “significantly induced”. The “apoptotic morphology by TEM” value in experiment [6] was “typical morphologic changes associated with apoptosis”. For the same molecule, in experiment [7], the “mitochondrial inner membrane polarization” value is given as “induced mitochondrial inner membrane depolarization”.
